{
  "source": "patent US20170319532A1",
  "about": "“METHODS AND FORMULATIONS FOR TREATMENT AND/OR PREVENTION OF BLOOD-ASSOCIATED DISORDERS” (TWi Biotechnology, Inc., priority 2016, published 2017)",
  "tested_on": "hemophilic arthropathy rat model (knee joint swelling)",
  "experiment": "Joint swelling in rat hemophilic arthropathy model induced by intraarticular injection of whole blood",
  "type": "in vivo, female Lewis rats",
  "details": "for % change of joint swelling: left vs right knee oval area, p<0.05",
  "experimental": "A total of 8 female Lewis rats were used for hemophilia arthropathy (HA) study. The animals were specific pathogen free and approximately 6 to 7 weeks old upon start dosing.\nAnimals were randomized into 2 groups on Day 1 and started to receive diacerein or vehicle treatments throughout the study of 10 days. On Day 4 and Day 8, treatment was performed 1 hour before HA model induction. For HA induction, under anesthesia with 1.5-5% isoflurane (inhalation anesthesia machine, Matrix vip 3000 isoflurane), blood was collected from orbital sinus of each rat and immediately, 0.1 ml of whole blood was intraarticular injected into the cavity of left knee using syringe with 27G needle. The blood was anti-coagulated with EDTA-2K. Body weight and joint swelling measurement were assessed 4 hours post-dosing every day.\nThe longitudinal and transverse axes of both knee joints were measured with calipers on Day 1 (pre-dose), Day 4 (pre-dose), and Day 4-10 (4 hours post-dose). The oval area of knee joints and % change of joint swelling was calculated using the following formula:\nOval area=longitudinal axis×transverse axis×3.14×0.25% change of joint swelling=(Oval area left−Oval area right)/Oval area right×100%",
  "data": [
    {"smiles": "CC(=O)Oc1cccc2c1C(=O)c1c(OC(C)=O)cc(C(=O)O)cc1C2=O", "note": "[diacerein, 4,5-bis (acetyloxy) 9,10-dihydro-4,5-dihydroxy-9,10-dioxo-2-anthracenecarboxylic acid]", "values": [
      {"measurement": "% change of joint swelling", "setting": "Day 8, the second hemophilia arthropathy induction, vehicle 22.57±3.77%", "value": "10.02±3.54", "unit": "%"},
      {"measurement": "% change of joint swelling", "setting": "Day 10, end of the study, vehicle 13.51±4.78%", "value": "0.50±3.28", "unit": "%"},
      {"measurement": "joint swelling (qualitative)", "setting": "hemophilic arthropathy rat model, compared with vehicle", "value": "suppressed joint swelling"}
    ]}
  ]
}
